Reference: US20030049807A1, “Micro-organism possessing enantioselective and regioselective nitrile hydratase/amidase activities” (priority 2001, published 2003)

What was measured:
[1] = system: nitrile-hydratase/amidase activity of the wild type strain; test: Nitrile-hydratase/amidase activity of the wild type parent strain after induction with valeronitrile; assay type: cell-based, Agrobacterium radiobacter; conditions: wild type strain sub-cultured with butyronitrile, induced with valeronitrile
Method: The parent strain, characterised as Agrobacterium radiobacter, was isolated from a crude bacterial extract with antibiotic activity. In order to determine activity towards nitrilic substrates, it was sub-cultured in medium containing butyronitrile and after some passages and induction with valeronitrile, a weak nitrile-hydratase/amidase activity was measured on benzoylphenylpropionitrile (BPN) of the wild type strain as such selected. To obtain a semi-constitutive strain, an aliquot of wild type parent strain was subjected to a treatment of mutagenesis, constituted by two treatment cycles with ethylmethanesulphonate, one cycle with nitrosoguanidine and two of mutagenesis with UV irradiation.

[2] = system: nitrile hydratase/amidase activity of bacterial pellet of strain NCIMB 41108; test: Enzymatic activity of the whole-cell biocatalyst (wet bacterial pellet) towards nitrile/amide substrates, HPLC or GC; assay type: cell-based, Agrobacterium radiobacter 30″60; conditions: 30° C.; for enzymatic activity: 50 mg substrate, 250 mg wet pellet
Method: The enzymatic activity was evaluated using a bacterial pellet obtained after fermentation for 48 hours in fermentation medium as described below. Briefly, the culture was amplified from a single colony to begin with in a small volume of inoculating medium and then, for preparative purposes, in 100 ml of fermentation medium.
Fermentation medium: MgSO4 (0.5 g l^−1), ,CaCl2.6H2O (0.1 g l^−1), FeSO4 (0.4 g l^−1), CoCl2 (0.1 g l^−1), MnSO4 (0.01 g l^−1), (NH4)2SO4 (5 g l^−1), Yeast Extract (10 g l^31 1). The inducer, or the inducers, were added to the fermentation medium alone or in combination, sterilely, to a final concentration comprised of between 0.5-5 g/L. In particular, if not stated differently, valeronitrile, N-butyronitrile, isobutyronitrile and ε-caprolactam were used at a concentration respectively of 2.5 g/l and added in a single solution at the start of the process. To measure the basal activity of the strain 41108, no inducer was added to the fermentation medium.
Inoculation. […]
Reaction scheme. […] At preset time intervals, aliquots of the mixture were sterilely removed with a syringe, using a Minisart RC 25 filter 0,22 μm (Sartorius, Germany) and directly analysed by HPLC. The enzymatic activity was determined by the mean activity measured in the initial, linear phase of the conversion curve, relative to the wet weight of the bacterial paste. […]
Evaluation of the conversion percentages and of the enantiomeric excess. The percentage conversion of the substrate was measured by reverse phase HPLC using a reverse phase column of dimensions: 250×4.6 mm; 10 μm (Lichrosorb 10 RP18), and phosphate buffer at various percentages (10 mM, pH 2.5 e 3.5) with acetonitrile at 40 or 50% depending on the molecule to be detected. […] The e.e. values of the reaction products obtained from benzoylphenylpropionitrile were determined by HPLC fitted with a chiral column (dimensions: 100×4 mm; Chromtech AGP-column) and phosphate buffer used as eluent (10 mM, pH 7.0) with isopropanol (1%, v/v) and dimethyloctylamine (0,02%, v/v). […]

CC(C#N)c1cccc(C(=O)c2ccccc2)c1 (racemic) [benzoylphenylpropionitrile, 2-(3-benzoylphenyl)propionitrile]
nitrile-hydratase/amidase activity [1]: weak

CC(C#N)c1ccc(-c2ccccc2)c(F)c1 (stereo not drawn) [2-fluoro-α-methyl[1,1′-diphenyl]-4-acetonitrile]
enzymatic activity ([2]; pellet induced with valeronitrile 0,2%, 24 hours): 0.26 IU g^−1 of wet cells

CC(C#N)c1cccc(Oc2ccccc2)c1 (stereo not drawn) [α-methyl-3-phenoxibenzen-acetonitrile]
enzymatic activity ([2]; pellet induced with valeronitrile 0,25%, 1 hour): 5.23 IU g^−1 of wet cells

CC(C#N)c1ccccc1 (stereo not drawn) [α-methylbenzyl cyanide]
rate of transformation, times higher ([2]; pellet induced with valeronitrile and ε-caprolactam 0,25%, comparator not given): approximately 20 times
